{"source": "paper PMC9146161", "about": "“Novel Thienyl-Based Tyrosine Kinase Inhibitors for the Treatment of Hepatocellular Carcinoma” (Journal of Personalized Medicine, 2022)", "biological_target": "T1, VEGFR-2 (Homo sapiens, UniProt P35968)", "T1 construct": "gene KDR", "T1 sequence (P35968 20-1356)": "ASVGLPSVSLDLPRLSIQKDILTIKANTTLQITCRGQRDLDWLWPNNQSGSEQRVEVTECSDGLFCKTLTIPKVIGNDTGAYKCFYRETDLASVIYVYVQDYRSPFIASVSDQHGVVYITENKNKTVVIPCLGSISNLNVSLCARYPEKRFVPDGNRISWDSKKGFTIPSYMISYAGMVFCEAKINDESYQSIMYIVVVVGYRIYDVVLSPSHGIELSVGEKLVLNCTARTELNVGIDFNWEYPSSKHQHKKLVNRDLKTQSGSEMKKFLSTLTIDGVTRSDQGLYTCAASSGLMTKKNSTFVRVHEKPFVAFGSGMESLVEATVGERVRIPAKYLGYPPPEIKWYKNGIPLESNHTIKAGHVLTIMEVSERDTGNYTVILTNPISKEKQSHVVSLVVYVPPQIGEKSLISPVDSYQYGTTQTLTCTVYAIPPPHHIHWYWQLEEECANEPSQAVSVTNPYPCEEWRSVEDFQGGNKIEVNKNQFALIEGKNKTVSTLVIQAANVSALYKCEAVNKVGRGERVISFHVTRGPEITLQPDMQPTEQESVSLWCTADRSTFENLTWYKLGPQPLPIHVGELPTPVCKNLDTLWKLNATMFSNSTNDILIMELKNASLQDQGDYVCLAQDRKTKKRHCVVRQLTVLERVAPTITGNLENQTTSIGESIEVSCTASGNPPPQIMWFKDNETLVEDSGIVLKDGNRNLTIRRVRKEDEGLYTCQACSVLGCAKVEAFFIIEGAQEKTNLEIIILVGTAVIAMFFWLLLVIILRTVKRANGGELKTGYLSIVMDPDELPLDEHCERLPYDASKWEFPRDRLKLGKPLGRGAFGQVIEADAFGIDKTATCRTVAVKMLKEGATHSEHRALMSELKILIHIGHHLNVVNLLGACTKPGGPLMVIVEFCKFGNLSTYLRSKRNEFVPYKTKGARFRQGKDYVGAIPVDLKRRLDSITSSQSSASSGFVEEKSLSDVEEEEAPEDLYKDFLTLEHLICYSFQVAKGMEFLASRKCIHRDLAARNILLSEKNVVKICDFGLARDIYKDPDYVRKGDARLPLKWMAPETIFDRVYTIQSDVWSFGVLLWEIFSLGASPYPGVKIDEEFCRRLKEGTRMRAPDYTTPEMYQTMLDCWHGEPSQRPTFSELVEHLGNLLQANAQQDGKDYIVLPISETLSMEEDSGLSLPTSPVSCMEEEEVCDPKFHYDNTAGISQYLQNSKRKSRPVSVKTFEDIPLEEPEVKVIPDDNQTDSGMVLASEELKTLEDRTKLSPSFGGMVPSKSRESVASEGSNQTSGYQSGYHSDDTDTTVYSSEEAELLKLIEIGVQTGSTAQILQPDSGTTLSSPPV", "assay": "cell-free enzymatic kinase assay (Eurofins KinaseProfiler), dose-response […]", "type": "biochemical", "data": [{"molecule": "COc1ccc(/C=C(\\C#N)c2cccs2)cc1O", "note": "[Thio-Iva]", "values": [{"measurement": "IC50", "value": 3.31, "unit": "µM"}]}]}
